PMC8264259, “A Novel Ruthenium(II) Complex With Lapachol Induces G2/M Phase Arrest Through Aurora-B Kinase Down-Regulation and ROS-Mediated Apoptosis in Human Prostate Adenocarcinoma Cells” (Frontiers in Oncology, 2021)

What was measured:
[1] = tested on: DU-145 cells; assay: Clonogenic assay; type: cell-based, human; details: 24 h treatment, colonies after 7 days
Experimental: The clonogenic assay was performed in accordance with the guidelines of ([34]). […] DMSO (0.1% v/v) was used as the vehicle control. After 24 h, the cells were washed with PBS (Gibco-Invitrogen®) and harvested by trypsinization. Cells were counted using a Neubauer chamber and replated then on cell culture dishes of 21.5 cm^2 in a density of 200 cells per culture dish for each treatment in triplicate. After 7 days, cells were fixed in ice-cold methanol: acetic acid: distilled water (1:1:8), air-dried, and stained with crystal violet (0.5% w/v, Sigma-Aldrich) for 20 min. Colonies with at least 50 cells were counted. Plating efficiency (PE) of DU-145 cells was calculated by the ratio of the number of colonies observed after 7 days of incubation to the number of cells seeded (two hundred). The average of colonies in control was considered as 100%, and the number of colonies that arise after treatment of cells is called the surviving fraction (SF), obtained by:
SF = Numberofcoloniescountedineachtreatment/Numberofcoloniescountedincontrol x PE × 100

[2] = tested on: MDA-MB-231 (human breast adenocarcinoma); assay: Alamar blue cytotoxicity assay, MDA-MB-231; type: cell-based; details: for IC50: MDA-MB-231, Alamar blue, 24-h incubation, mean ± S.E.M.
Text: (§1) Human lung carcinoma (A549, ATCC® CCL-185™), human hepatocellular carcinoma (HepG2, ATCC® HB-8065™), and human breast adenocarcinoma (MDA-MB-231, ATCC® HTB-26™) were obtained from American Type Cell Collection (ATCC). Human melanoma (A-375, BCRJ-0278), Human colorectal adenocarcinoma (Caco-2, BCRJ 0059), human prostate adenocarcinoma (DU-145, BCRJ-0078, and PC-3, BCRJ-0269), human mouth fibroblast (FGH, BCRJ-0089), and human prostate epithelial cells (PNT-2, BCRJ-0366) were obtained from Rio de Janeiro Cells Bank (BCRJ). The cells A549, A-375, Caco-2, DU-145, HepG2, MDA-MB-231, and FGH were cultured in Dulbecco’s Modified Eagle’s Medium (DMEM, Gibco-Invitrogen®), PC-3 and PNT-2 cells were grown in Roswell Park Memorial Institute Medium (RPMI-1640, Gibco-Invitrogen®). Both mediums were supplemented according to the needs of each lineage, as recommended by its cell banks with 2 mM L-glutamine (Gibco-Invitrogen®), 10% or 20% fetal bovine serum (Gibco-Invitrogen®), 1% antibiotic-antimycotic solution (5 mg/ml penicillin, 5 mg/ml streptomycin, and 10 mg/ml neomycin, Gibco-Invitrogen®), and 3.7 g/L of NaHCO3 (Sigma-Aldrich). All cell lines were cultured in flasks at 37°C in 5% CO2 and 96% of relative humidity according to the procedures proposed by ([31]), and a mycoplasma stain kit (Sigma-Aldrich) was used to confirm the use of cells devoid of contamination. The assays were conducted between the third and the seventh-cell passage with sub-cultures every 3 to 4 days to maintain exponential growth. The cell viability was checked using the trypan blue dye exclusion assay for all experiments where over 95% of the cells were viable at the beginning of the tests.
(§2) The in vitro antiproliferative activity was quantified using the Alamar blue® assay, according to the method reported by ([32]). Cells were seeded in 96-well plates for all experiments (1.5 × 10^4 cells/well). After 24 h, the complexes were dissolved in DMSO and added to each well and incubated for 24 h. Dilutions of the complexes were prepared to obtain concentrations ranging from 0.3 to 100 μM. […] DMSO (0.1% v/v) was used as the vehicle control. Following 24 h of incubation, 50 μl of Alamar blue® (resazurin at 0.01% w/v, Sigma-Aldrich) was added to each well, and the plates were incubated, at 37°C, in the dark. Fluorescence reading was performed in a Synergy H1 Fluorescence Spectrophotometer (BioTek®), using excitation and emission filters at wavelengths of 560 and 590 nm, respectively. The fluorescence intensity was measured in arbitrary fluorescence units (AFU) and the AFU of untreated cells (CTL) was considered 100%. The cytotoxic effects of the compounds were estimated in terms of cell proliferation inhibition (%) and expressed as half-maximal inhibitory concentration (IC50). The cell proliferation inhibition percentage of cells exposed to treatments was calculated following: % Inhibition = 100 − (AFU of treated well/AFU of control well) × 100). The IC50 values were calculated from the cell proliferation inhibition percentage by nonlinear regression method using CompusSyn® Software.

[3] = tested on: FGH (human mouth fibroblast); assay: Alamar blue cytotoxicity assay, FGH non-cancer cells; type: cell-based; details: 24-h incubation, mean ± S.E.M.
Text: as §1, §2

[4] = tested on: Caco-2 (human colorectal adenocarcinoma); assay: Alamar blue cytotoxicity assay, Caco-2; type: cell-based; details: for IC50: Caco-2, Alamar blue, 24-h incubation, mean ± S.E.M.
Text: as §1, §2

[5] = tested on: A-375 (human malignant melanoma); assay: Alamar blue cytotoxicity assay, A-375; type: cell-based; details: for IC50: A-375, Alamar blue, 24-h incubation, mean ± S.E.M.
Text: as §1, §2

[6] = tested on: DU-145 (human prostate adenocarcinoma); assay: Alamar blue cytotoxicity assay, DU-145; type: cell-based; details: for IC50: DU-145, Alamar blue, 24-h incubation, mean ± S.E.M.
Text: as §1, §2

[7] = tested on: A549 (human lung carcinoma); assay: Alamar blue cytotoxicity assay, A549; type: cell-based; details: for IC50: A549, Alamar blue, 24-h incubation, mean ± S.E.M.
Text: as §1, §2

[8] = Partition coefficient (n-octanol/water), shake-flask method; type: physicochemical; details: 24 h, 37°C, triplicate
Experimental: The octanol-water partition coefficients (log P) were quantified using the shake-flask method ([30]). Each complex was tested in a mixture of equal volumes of water and n-octanol with continuous shaking for 24 h at 112g and 37°C. Then the samples were centrifuged for 5 min at 10g, and the organic and aqueous phases were separated. The concentration of complex in each phase was measured spectrophotometrically to determine values of […]. The experiments were carried out in triplicate.

[9] = tested on: PC-3 (human prostate adenocarcinoma); assay: Alamar blue cytotoxicity assay, PC-3; type: cell-based; details: for IC50: PC-3, Alamar blue, 24-h incubation, mean ± S.E.M.
Text: as §1, §2

[10] = tested on: HepG2 (human hepatocellular carcinoma); assay: Alamar blue cytotoxicity assay, HepG2; type: cell-based; details: for IC50: HepG2, Alamar blue, 24-h incubation, mean ± S.E.M.
Text: as §1, §2

[11] = SI = IC50[FGH]/IC50[MDA-MB-231]
[12] = SI = IC50[PNT-2]/IC50[MDA-MB-231]

Row | SMILES | survival fraction (SF) ([1]; DU-145, 0.125 μM) [%] | survival fraction (SF) ([1]; DU-145, 0.25 μM) [%] | survival fraction (SF) ([1]; DU-145, 0.5 μM) [%] | survival fraction (SF) ([1]; DU-145, 1.0 μM) [%] | survival fraction (SF) ([1]; DU-145, 1.5 μM) [%] | IC50 [2] [nM] | Selectivity index (SI) [2, 11] | Selectivity index (SI) [2, 12] | IC50 [3] [nM] | IC50 [4] [nM] | Selectivity index (SI) ([4]; SI = IC50[FGH]/IC50[Caco-2]) | Selectivity index (SI) ([4]; SI = IC50[PNT-2]/IC50[Caco-2]) | IC50 [5] [nM] | Selectivity index (SI) ([5]; SI = IC50[FGH]/IC50[A-375]) | Selectivity index (SI) ([5]; SI = IC50[PNT-2]/IC50[A-375]) | IC50 [6] [nM] | Selectivity index (SI) ([6]; SI = IC50[FGH]/IC50[DU-145]) | Selectivity index (SI) ([6]; SI = IC50[PNT-2]/IC50[DU-145]) | IC50 [7] [nM] | Selectivity index (SI) ([7]; SI = IC50[FGH]/IC50[A549]) | other results
1 | CC(C)=CCC1=C([O-])C(=O)c2ccccc2C1=O.F[P-](F)(F)(F)(F)F.[Ru+2].c1ccc(-c2ccccn2)nc1.c1ccc(P(CP(c2ccccc2)c2ccccc2)c2ccccc2)cc1 [complex (1), [Ru(Lap)(dppm)(bipy)]PF6] | 65.1 | 35.1 | 18.3 | 9.0 | 4.3 | 2100 ± 400 | 1.5 | 2.8 | 3100 ± 200 | 2000 ± 600 | 1.5 | 2.9 | 2500 ± 600 | 1.2 | 2.4 | 900 ± 200 | 3.4 | 6.5 | 3300 ± 400 | 0.9 | Selectivity index (SI) ([7]; SI = IC50[PNT-2]/IC50[A549]): 1.8; log P(o/w) [8]: 0.617 ± 0.014; IC50 [9]: 1300 ± 400 nM; Selectivity index (SI) ([9]; SI = IC50[FGH]/IC50[PC-3]): 2.4; Selectivity index (SI) ([9]; SI = IC50[PNT-2]/IC50[PC-3]): 4.5; IC50 [10]: 1700 ± 500 nM; Selectivity index (SI) ([10]; SI = IC50[FGH]/IC50[HepG2]): 1.8; Selectivity index (SI) ([10]; SI = IC50[PNT-2]/IC50[HepG2]): 3.5
2 | CC(C)=CCC1=C([O-])C(=O)c2ccccc2C1=O.F[P-](F)(F)(F)(F)F.[Ru+2].c1ccc(P(CP(c2ccccc2)c2ccccc2)c2ccccc2)cc1.c1cnc2c(c1)ccc1cccnc12 [complex (2), [Ru(Lap)(dppm)(phen)]PF6] | 58.0 | 17.7 | 4.3 | 0 | 0 | 2000 | 1.2 | 3.4 | 2500 ± 300 | 1200 ± 300 | 2.0 | 5.7 | 900 ± 300 | 2.7 | 7.5 | 800 ± 100 | 3.1 | 8.5 | 2600 ± 100 | 1.0 | cell viability with ROS scavenger NAC ([6]; DU-145, cotreatment with 5 mM NAC, 24 h, Alamar blue): prevented the reduction of cell viability; Selectivity index (SI) ([7]; SI = IC50[PNT-2]/IC50[A549]): 2.6; log P(o/w) [8]: 0.839 ± 0.007; IC50 [9]: 1100 ± 300 nM; Selectivity index (SI) ([9]; SI = IC50[FGH]/IC50[PC-3]): 2.2; Selectivity index (SI) ([9]; SI = IC50[PNT-2]/IC50[PC-3]): 6.2; IC50 [10]: 1500 ± 200 nM; Selectivity index (SI) ([10]; SI = IC50[FGH]/IC50[HepG2]): 1.7; Selectivity index (SI) ([10]; SI = IC50[PNT-2]/IC50[HepG2]): 4.5
